Assay results from patent US10435439B2, “Peptide with safer secondary structure, peptide library, and production methods for same” (The University of Tokyo, priority 2010, dated 2019).
pKd: −log10 of the molar value. *1 amine or outer side, *2 acyl side, *3 side chain or, on linkers, in order; H or OH if unused. Where a SMILES comes first, the peptide text is derived from it. Bridges are numbered along the chain shown (N, C = ends). [ ]: non-standard residue; d: D form. Nle(4-yne,6-yl) = O=C([C@H](CC#CC[*:3])N[*:1])[*:2]

target: Bcl-2 protein having His tag on the C terminal side (Homo sapiens, UniProt P10415); experiment: Binding ability to Bcl-2 by SPR (Surface Plasmon Resonance), dissociation constant; conditions: His-tagged Bcl-2 immobilized on Ni substrate, solid-phase synthesized peptide, KD from binding and dissociation rates
Description: Next, a crosslinked peptide having the amino acid sequence as shown in the above table was synthesized by using a Fmoc solid-phase method and its binding ability was evaluated by calculating a dissociation constant (KD) in accordance with an evaluation method using SPR (Surface Plasmon Resonance).
Described specifically, first, a solution containing NiCl2 was applied on a substrate to which Ni could be bound and then Bcl-2 protein having His tag on the C terminal side thereof was applied to immobilize the protein on the substrate. Then, a solution containing a solid-phase synthesized peptide was added successively while appropriately changing the concentration. During addition, a change in refractive index depending on the weight on the substrate was read and bond strength was evaluated based on the binding rate and dissociation rate of the peptide calculated.

Sequence of Bcl-2 protein having His tag on the C terminal side (P10415 whole entry): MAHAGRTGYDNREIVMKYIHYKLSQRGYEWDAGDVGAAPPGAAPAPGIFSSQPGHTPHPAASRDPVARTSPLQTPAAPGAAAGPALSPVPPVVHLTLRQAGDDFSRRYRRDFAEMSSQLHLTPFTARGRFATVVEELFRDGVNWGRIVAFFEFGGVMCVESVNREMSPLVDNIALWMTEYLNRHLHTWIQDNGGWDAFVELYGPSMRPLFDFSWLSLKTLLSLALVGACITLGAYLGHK

Row | pKd | SMILES
1 | 9.43 | CC[C@H](C)[C@@H]1NC(=O)[C@H]([C@@H](C)O)NC(=O)[C@@H](NC(=O)[C@H](Cc2c[nH]cn2)NC(=O)[C@@H]2CCCN2C(=O)[C@H](Cc2ccccc2)NC(C)=O)CC#CCSC[C@@H](C(=O)N[C@@H](CCCNC(=N)N)C(=O)N[C@@H](C)C(=O)N[C@@H](CC(=O)O)C(=O)N[C@@H](CO)C(=O)N[C@@H](Cc2ccc(O)cc2)C(=O)N[C@@H](CC(=O)O)C(=O)N[C@@H](CO)C(=O)N[C@@H](Cc2ccc(O)cc2)C(=O)N[C@H](C(=O)N[C@@H](CCCNC(=N)N)C(=O)N[C@@H](CC(C)C)C(=O)N[C@@H](C)C(=O)N[C@@H](C)C(=O)N[C@H](C(=O)N[C@@H](Cc2ccccc2)C(=O)N[C@@H](CC(C)C)C(N)=O)[C@@H](C)O)C(C)C)NC(=O)[C@H](C)NC1=O [A-1] (Ac-FPH[Nle(4-yne,6-yl)]TIACRADSYDSYVRLAATFL-NH2; thioether 4-8)
2 | 9.77 | CC[C@H](C)[C@H](NC(=O)[C@H](Cc1c[nH]cn1)NC(=O)[C@H](CCCNC(=N)N)NC(=O)[C@H](CO)NC(=O)[C@H](C)NC(=O)[C@H](CC(=O)O)NC(=O)[C@H](Cc1ccc(O)cc1)NC(=O)[C@H](CO)NC(=O)[C@H](CC(=O)O)NC(=O)[C@H](C)NC(=O)[C@H](CC(C)C)NC(=O)[C@@H]1CSCC#CC[C@H](NC(=O)[C@@H](NC(=O)[C@@H](NC(=O)[C@H](Cc2ccccc2)NC(C)=O)[C@@H](C)CC)[C@@H](C)CC)C(=O)N[C@@H](CCCNC(=N)N)C(=O)N[C@@H](Cc2ccccc2)C(=O)N[C@@H](CO)C(=O)N1)C(=O)N[C@@H](Cc1ccccc1)C(N)=O [A-5] (Ac-FII[Nle(4-yne,6-yl)]RFSCLADSYDASRHIF-NH2; thioether 4-8)
3 | < 10.00 | CC(=O)N[C@@H](Cc1ccccc1)C(=O)N[C@@H](CC(C)C)C(=O)N[C@@H](CC(N)=O)C(=O)N[C@@H](CCCNC(=N)N)C(=O)N[C@@H](Cc1c[nH]cn1)C(=O)N[C@@H](CC(N)=O)C(=O)N[C@@H](CC(N)=O)C(=O)N[C@@H](C)C(=O)N[C@@H](Cc1ccc(O)cc1)C(=O)N[C@@H](Cc1ccc(O)cc1)C(=O)N[C@H](C(=O)N[C@H]1CC#CCSC[C@@H](C(=O)N[C@@H](CC(C)C)C(=O)NCC(=O)N[C@@H](CCCNC(=N)N)C(=O)N[C@@H](CC(C)C)C(=O)N[C@@H](Cc2ccc(O)cc2)C(=O)N[C@@H](CCCNC(=N)N)C(=O)N[C@@H](CC(C)C)C(=O)N[C@@H](CC(C)C)C(N)=O)NC(=O)[C@H](C)NC(=O)[C@H](Cc2ccc(O)cc2)NC(=O)CNC1=O)[C@@H](C)O [A-3] (Ac-FLNRHNNAYYT[Nle(4-yne,6-yl)]GYACLGRLYRLL-NH2; thioether 12-16)
4 | < 10.00 | CC(=O)N[C@@H](Cc1ccccc1)C(=O)N[C@@H](Cc1ccccc1)C(=O)N[C@@H](CC(N)=O)C(=O)N[C@@H](CCCNC(=N)N)C(=O)N[C@@H](Cc1c[nH]cn1)C(=O)N[C@@H](CC(N)=O)C(=O)N[C@@H](CC(N)=O)C(=O)N[C@@H](C)C(=O)N[C@@H](Cc1ccc(O)cc1)C(=O)N[C@@H](Cc1ccc(O)cc1)C(=O)N[C@H](C(=O)N[C@H]1CC#CCSC[C@@H](C(=O)N[C@@H](CC(C)C)C(=O)NCC(=O)N[C@@H](CCCNC(=N)N)C(=O)N[C@@H](CC(C)C)C(=O)N[C@@H](Cc2ccc(O)cc2)C(=O)N[C@@H](CCCNC(=N)N)C(=O)N[C@@H](CC(C)C)C(=O)N[C@@H](CC(C)C)C(N)=O)NC(=O)[C@H](C)NC(=O)[C@H](Cc2ccc(O)cc2)NC(=O)CNC1=O)[C@@H](C)O [A-4] (Ac-FFNRHNNAYYT[Nle(4-yne,6-yl)]GYACLGRLYRLL-NH2; thioether 12-16)
